Experimental findings from article PMC9959716, “Borate Transporters and SLC4 Bicarbonate Transporters Share Key Functional Properties” (Membranes, 2023) are described below.

One series addresses T1, ScBor1p (Saccharomyces cerevisiae, UniProt P53838).
T1 construct: gene BOR1; full length, C-terminal deca-histidine tag, pRS423-derived plasmid, GAL1 promoter, expressed in S. cerevisiae BTSY2 (bor1 deletion)
T1 sequence (P53838 1-576): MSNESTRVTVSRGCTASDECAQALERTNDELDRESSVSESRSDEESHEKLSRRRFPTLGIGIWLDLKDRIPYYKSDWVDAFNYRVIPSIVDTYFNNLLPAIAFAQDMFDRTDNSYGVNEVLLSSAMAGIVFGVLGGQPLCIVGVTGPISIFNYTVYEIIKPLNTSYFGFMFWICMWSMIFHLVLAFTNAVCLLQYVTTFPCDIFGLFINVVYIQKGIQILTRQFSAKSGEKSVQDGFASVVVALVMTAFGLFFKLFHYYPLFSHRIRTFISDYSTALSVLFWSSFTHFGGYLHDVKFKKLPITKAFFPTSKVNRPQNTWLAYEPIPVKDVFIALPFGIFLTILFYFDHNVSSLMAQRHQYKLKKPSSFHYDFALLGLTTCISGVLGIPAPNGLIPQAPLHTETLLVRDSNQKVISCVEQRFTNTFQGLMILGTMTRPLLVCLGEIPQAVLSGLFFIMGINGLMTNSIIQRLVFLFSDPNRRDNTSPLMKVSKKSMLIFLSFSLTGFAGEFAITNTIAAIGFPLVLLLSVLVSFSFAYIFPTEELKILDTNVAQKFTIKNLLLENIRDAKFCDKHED
As to the kind of experiment: curcumin spectrophotometric quantification of intracellular borate (efflux) in yeast lysates. The class given is cell-based. The note with it: 1 mM boric acid for 90 min.

Series [1] concerns the molecule itself. As to the kind of experiment: cross-linking; purified ScBor1p reconstituted into PC (16:0/18:1) proteoliposomes, 1:20 protein:lipid (w:w), detergent removed with Bio-beads; 0.15% glutaraldehyde, 5 min, room temperature; 20 mM Mes pH 6.5, 100 mM NaCl, 2% glycerol; control with 5 min pre-treatment with 2% SDS.

As for `OB(O)O` [borate], on ScBor1p, the “curcumin spectrophotometric quantification of intracellular borate (efflux) in y” value was “Quantification of borate efflux activity in yeast cells expressing each indicated protein”.

B1: S. cerevisiae borate transporter Bor1p (natural protein, UniProt P53838 1-576, looked up)
chain: MSNESTRVTVSRGCTASDECAQALERTNDELDRESSVSESRSDEESHEKLSRRRFPTLGIGIWLDLKDRIPYYKSDWVDAFNYRVIPSIVDTYFNNLLPAIAFAQDMFDRTDNSYGVNEVLLSSAMAGIVFGVLGGQPLCIVGVTGPISIFNYTVYEIIKPLNTSYFGFMFWICMWSMIFHLVLAFTNAVCLLQYVTTFPCDIFGLFINVVYIQKGIQILTRQFSAKSGEKSVQDGFASVVVALVMTAFGLFFKLFHYYPLFSHRIRTFISDYSTALSVLFWSSFTHFGGYLHDVKFKKLPITKAFFPTSKVNRPQNTWLAYEPIPVKDVFIALPFGIFLTILFYFDHNVSSLMAQRHQYKLKKPSSFHYDFALLGLTTCISGVLGIPAPNGLIPQAPLHTETLLVRDSNQKVISCVEQRFTNTFQGLMILGTMTRPLLVCLGEIPQAVLSGLFFIMGINGLMTNSIIQRLVFLFSDPNRRDNTSPLMKVSKKSMLIFLSFSLTGFAGEFAITNTIAAIGFPLVLLLSVLVSFSFAYIFPTEELKILDTNVAQKFTIKNLLLENIRDAKFCDKHED
notes: Borate transporter Bor1p of S. cerevisiae, wild type; Membrane protein; Monomer-dimer equilibrium; dimer promoted by lipids; also called ScBor1p; source: reconstituted into PC or PG proteoliposomes
Consider B1, for which the binding result in series [1] is “binds”.
